Measurements as given in the CombiSolv-Exp solvation set (Vermeire and Green 2021).

Experiment: solvent given as SMILES

c1ccc2c(c1)Cc1ccccc1O2
Conditions	solvation free energy, 298 K [kcal/mol]
in C1CCOC1	-10.9
in C1COCCO1	-10.8
in CC(C)(C)O	-9.25
in CC(C)CC(C)(C)C	-9.39
in CC(C)CC(C)O	-9.34
in CC(C)CCO	-9.39
in CC(C)CO	-9.24
in CC(C)O	-9.22
in CC(C)OC(C)C	-9.95
in CCC(C)(C)O	-9.49
in CCC(C)O	-9.33
in CCCC(C)CO	-9.42
in CCCC(C)O	-9.43
in CCCCCC	-9.63
in CCCCCCC	-9.67
in CCCCCCCC	-9.68
in CCCCCCCCCC	-9.67
in CCCCCCCCCCO	-9.67
in CCCCCCCCO	-9.67
in CCCCCCCO	-9.66
in CCCCCCO	-9.63
in CCCCCO	-9.57
in CCCCO	-9.53
in CCCCOCCCC	-10.1
in CCCO	-9.41
in CCO	-9.19
in CCOCC	-10.5
in CO	-9.2
in COC(C)(C)C	-10.3
in ClC(Cl)(Cl)Cl	-10.8
in ClCCCl	-10.8

Oc1ccc(I)cc1
Conditions	solvation free energy, 298 K [kcal/mol]
in O	-7.61

Oc1ccc(O)cc1
Conditions	solvation free energy, 298 K [kcal/mol]
in CCCCCC	-6.25
in CCCCCCCC	-6.58
in CCCCOC(C)=O	-12.2
in CCOC(C)=O	-12.3
in Cc1ccc(C)cc1	-8.81
in Cc1cccc(C)c1	-8.88
in Cc1ccccc1C	-8.88
in O	-12.1

O=C(Oc1ccccc1)c1ccccc1O
Conditions	solvation free energy, 298 K [kcal/mol]
in CC(C)CO	-12.2
in CC(C)O	-12.2
in CCC(C)O	-12.5
in CCCCO	-12.4
in CCCO	-12.4
in CCO	-12.4
in CO	-12.5

C=C
Conditions	solvation free energy, 298 K [kcal/mol]
in Brc1ccccc1	-0.52
in C1CCC2CCCCC2C1	-0.46
in C1CCOC1	-0.82
in C1COCCO1	-0.58
in CC1CO1	-0.89
in CC1COC(=O)O1	-0.17
in CC#N	-0.62
in CC(=O)N(C)C	-0.45
in CC(C)(C)O	-0.49
in CC(C)=O	-0.76
in CC(C)CO	-0.46
in CC(C)O	-0.45
in CCC(C)O	-0.44
in CCCCC	-0.69
in CCCCCC	-0.64
in CCCCCCC	-0.62
in CCCCCCCC	-0.6
in CCCCCCCCC	-0.6
in CCCCCCCCCC	-0.57
in CCCCCCCCCCCCCCCC	-0.39
in CCCCCCCCO	-0.37
in CCCCCCCO	-0.43
in CCCCCCO	-0.43
in CCCCCO	-0.48
in CCCCO	-0.46
in CCCO	-0.52
in CCO	-0.56
in CCOCC	-0.97
in CN1CCCC1	-0.32
in CN1CCCC1=O	-0.4
in CN(C)C=O	-0.45
in CN(C)P(=O)(N(C)C)N(C)C	-0.52
in CNC=O	-0.2
in CO	-0.51
in COC(C)=O	-0.75
in COCCOCCOCCOC	-0.25
in CS(C)=O	-0.05
in Cc1cccc(C)c1	-0.61
in ClC(Cl)(Cl)Cl	-0.78
in ClCCCl	-0.49
in Clc1ccccc1	-0.61
in N#Cc1ccccc1	-0.45
in Nc1ccccc1	-0.15
in O	1.28
in O=C1CCCC1	-0.6
in O=C1CCCCC1	-0.55
in OCCCOCCCO	0.06
in OCCO	0.5
in OCc1ccccc1	-0.23
in c1ccccc1	-0.66

Nc1cccc([N+](=O)[O-])c1
Conditions	solvation free energy, 298 K [kcal/mol]
in CC(C)CC(C)(C)C	-8.01
in O	-8.84

CCCCc1ccccc1
Conditions	solvation free energy, 298 K [kcal/mol]
in C1CCOC1	-7.33
in CC#N	-6.1
in CC(C)O	-5.98
in CCC(C)=O	-6.73
in CCCCCCC	-6.58
in CCCCCCCCCCCCCCCC	-6.44
in CCO	-5.72
in CO	-5.81
in O	-0.37
in O=Cc1ccco1	-5.99
in OCCOCCO	-4.81

COc1ncnc(NS(=O)(=O)c2ccc(N)cc2)c1OC
Conditions	solvation free energy, 298 K [kcal/mol]
in O	-19.6
